Measured values reported in patent publication US11596632B2, “JAK1 pathway inhibitors for the treatment of gastrointestinal disease” (Incyte Corporation, priority 2018, dated 2023).
Entries after “also recorded” stand apart in the source; their conditions may differ. Read-outs that look alike come from different tables or passages of the source.

Assays:
[1] = target: JAK2 (a.a. 828-1132) (Homo sapiens (Human), UniProt O60674); test: In vitro JAK kinase assay (HTRF), JAK2 relative to JAK1; assay type: biochemical; conditions: IC50 ratio, 1 mM ATP
Protocol: The catalytic activity of JAK1, JAK2 or JAK3 was assayed by measuring the phosphorylation of a biotinylated peptide. The phosphorylated peptide was detected by homogenous time resolved fluorescence (HTRF). […] Reactions are carried out at room temperature for 1 hour and then stopped with 20 μL 45 mM EDTA, 300 nM SA-APC, 6 nM Eu-Py20 in assay buffer (Perkin Elmer, Boston, Mass.). Binding to the Europium labeled antibody takes place for 40 minutes and HTRF signal was measured on a Fusion plate reader (Perkin Elmer, Boston, Mass.).

[2] = test system: IL-6 stimulated phosphorylated STAT3 in whole blood; test: IL-6 stimulated STAT3 phosphorylation in whole blood; assay type: cell-based; conditions: Homo sapiens, IL-6 stimulated pSTAT3, read-out: ex vivo whole blood IC50
Protocol: To assess the inhibitory activity of Compound 1 in serum-rich media, e.g., plasma or whole blood, the assay is conducted using whole blood; briefly, the whole blood sample is stimulated with IL-6 and levels of phosphorylated STAT3 are determined. This assay can be conducted either in vitro (human blood samples are spiked with Compound 1) or ex vivo (whole blood samples collected from human subjects dosed with Compound 1).

[3] = Plasma pharmacokinetics after single oral sustained release dose; assay type: in vivo, human
Protocol: The method used for analyzing Compound 1 in human plasma has been validated. Briefly, 50 μL of human plasma sample is placed in a 96-well plate. After an aliquot of 50 μL of internal standard (dissolved in 50:50 acetonitrile:water) is added, an aliquot of 100 μL of 0.1 M NaHCO3 is added. Then 800 μL of methyl-t-butyl ether (MtBE) is added and the samples are covered and vortexed. After centrifugation, 700 μL of MtBE layer is transferred to a clean 96-well plate. The samples are then dried under nitrogen at approximately 50° C. An aliquot of 250 μL of reconstitution solution (acetonitrile:water, 50:50, v/v) is then added to each sample. The plate is placed in the autosampler tray and injected into an LC-MS/MS for analysis. The LC-MS/MS analysis is carried out with an AB Sciex 4000 or a Sciex 6500 QTRAP mass spectrometer coupled with an HPLC pump and an autosampler. The chromatographic separation is achieved on a Waters T3 (50 mm×2.1 mm) HPLC column, with isocratic elution. The mass spectrometer is operated in positive ESI mode. The multiple reaction monitoring (MRM) transition is m/z 554.1→186.0 for Compound 1 and m/z 558.1→190.0 for the internal standard. Peak-area integrations are performed using the Analyst software and concentrations are calculated in Watson LIMS. Concentrations are calculated using 10 concentration levels ranging from 5 nM to 5000 nM with weighted linear regression, according to the following formula: y=ax+b(weighting factor=1/x^2) • where: x=Compound 1 concentration in nM; y=Peak-area ratio; a=Slope; and b=Intercept.
The lower limit of quantitation is 5 nM and the calibration curve ranges from 5 nM to 5000 nM for Compound 1 in human plasma.
Methods: Compound 1 concentrations in plasma and feces (colonic surrogate) were determined following a single sustained release 25 mg oral dose (see, e.g., Example B, 25 mg SR composition). Compound 1 concentrations in plasma following a single 100 mg dose were also determined in a separate study (see, e.g., Example C for measuring concentrations of Compound 1 in plasma). Ex vivo study: Colon tissue samples from healthy and UC subjects (2/group) were mounted on a vertical Ussing diffusion chamber. [^14C]Compound 1 was applied to the apical side of the chamber at 100 and 1000 nM and incubated for 1 h. Samples were collected from the donor and receiver sides for determination of Compound 1 concentration. The colonic tissue was snap frozen for quantitative autoradiography.
Standard noncompartmental pharmacokinetic methods were used to analyze Compound 1 plasma concentrations. The Cmax (maximum plasma concentration) and Tmax (time at which the maximum plasma concentration occurs) were taken directly from the observed plasma concentration data. The terminal-phase disposition rate constant (λZ) was estimated using a log-linear regression of the concentration data in the terminal disposition phase, and t1/2 was estimated as ln(2)/λZ. AUCall is defined as the area under the plasma concentration-time curve from time 0 to the last observation calculated using the linear trapezoidal rule for increasing concentrations and logarithmic trapezoidal rule for decreasing concentrations. AUC0-inf was calculated as AUC0-t+Ct/λZ, where by AUC0-t is defined as the area under the plasma concentration-time curve from time 0 to the last measureable concentration (also calculated using the linear-up/log-down trapezoidal rule) and Ct is the last measurable concentration. Cl/F is the apparent clearance and is calculated as Dose/AUC0-inf. Vz/F is the apparent volume of distribution based on the terminal phase calculated as Dose/(λZ*AUC0-inf).

[4] = test system: IL-10 knockout mouse model of spontaneous colitis; test: IL-10 knockout mouse model of spontaneous colitis; assay type: in vivo
Text: The interleukin-10 (IL-10) knockout (KO) mouse model mirrors the multifactorial nature of inflammatory bowel disease (IBD), such as ulcerative colitis and Crohn's disease, as IL-10 KO mice, BALB/cAnNTac-1110^em7Tac, spontaneously develop colitis. Colitis in IL-10 KO mice results from an aberrant response of CD4^+ T helper 1-like T cells and an excessive secretion of the proinflammatory cytokines that signal through the Janus kinase/signal transducers and activators of transcription (JAK/STAT) pathway. Compound 1 is a potent JAK1 inhibitor with 22 to >500-fold selectivity for JAK2, JAK3 and TYK2, and is currently being investigated as a monotherapy in a clinical trial for moderate-to-severe ulcerative colitis.
Female IL-10 homozygote knockout mice on the BALB/c strain background were provided by Taconic (USA). From 6 weeks of age onwards, Compound 1 and vehicle (10 mL/kg) were administered by oral gavage twice daily. Diarrhea was quantified on a 0-3 rating scale, (0=normal; 1=soft but still formed; 2=very soft; 3=diarrhea). Mice were euthanized by CO2 asphyxiation and colon length and weight measured. Tissue pathology was scored on a scale of 0 to 10 based on the following criteria: Lymphocytic infiltrate in the mucosa and the gut associated lymphoid tissue located in the lamina propria/submucosa, mucosal erosions/ulcerations, and transmural inflammation. Body weight, stool consistency, fecal occult blood and rectal bleeding were scored. The incidence of rectal prolapse was recorded.

[5] = single 25 mg SR oral dose, N=12
[6] = 30 mg/kg oral twice daily, vs vehicle

Chain of JAK2 (a.a. 828-1132) (O60674 828-1132): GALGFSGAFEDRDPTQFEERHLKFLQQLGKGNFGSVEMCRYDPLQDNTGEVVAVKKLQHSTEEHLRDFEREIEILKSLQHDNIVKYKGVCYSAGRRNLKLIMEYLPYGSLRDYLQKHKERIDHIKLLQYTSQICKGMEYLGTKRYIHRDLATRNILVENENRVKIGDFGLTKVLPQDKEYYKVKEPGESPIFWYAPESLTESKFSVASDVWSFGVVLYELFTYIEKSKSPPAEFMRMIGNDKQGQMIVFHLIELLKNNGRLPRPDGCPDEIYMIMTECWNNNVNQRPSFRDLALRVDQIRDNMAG

Compound: N#CCC1(n2cc(-c3ncnc4[nH]ccc34)cn2)CN(C2CCN(C(=O)c3ccnc(C(F)(F)F)c3F)CC2)C1 [Compound 1, {1-{1-[3-Fluoro-2-(trifluoromethyl)isonicotinoyl]piperidin-4-yl}-3-[4-(7H-pyrrolo[2,3-d]pyrimidin-4-yl)-1H-pyrazol-1-yl]azetidin-3-yl}acetonitrile]
- JAK2/JAK1 [1]: >10
- IC50 [2]: 141 nM
- Cmax ([3]; human, plasma, 100 mg, plasma, single 100 mg dose, separate study, read-out: Cmax, mean (SD)): 84.4 nM
- AUC(0-inf) ([3]; human, plasma, po, 25 mg, plasma, single 25 mg SR oral dose, N=12, read-out: AUC0-inf, Geometric Mean): 0.111 µM·h
- AUC(0-inf) ([3]; human, plasma, po, 25 mg, plasma, single 25 mg SR oral dose, N=12, read-out: AUC0-inf, Mean): 0.117 µM·h
- AUC ([3]; human, plasma, po, 25 mg, plasma, single 25 mg SR oral dose, N=12, read-out: AUCall, Geometric Mean): 0.105 µM·h
- AUC ([3]; human, plasma, po, 25 mg, plasma, single 25 mg SR oral dose, N=12, read-out: AUCall, Mean): 0.11 µM·h
- Cmax ([3]; human, plasma, po, 25 mg, plasma, single 25 mg SR oral dose, N=12, read-out: Cmax, Geometric Mean): 17.2 nM
- Cmax ([3]; human, plasma, po, 25 mg, plasma, single 25 mg SR oral dose, N=12, read-out: Cmax, Mean): 18.9 nM
- half-life ([3]; human, plasma, po, 25 mg, single 25 mg SR oral dose, N=12, read-out: Half-life or t1/2, Geometric Mean (converted)): 9.04 h
- half-life ([3]; human, plasma, po, 25 mg, single 25 mg SR oral dose, N=12, read-out: Half-life or t1/2, Mean (converted)): 12.3 h
- Vd/F ([3]; human, plasma, po, 25 mg, single 25 mg SR oral dose, N=12, read-out: Vz/F, Geometric Mean): 5290 L
- Vd/F ([3]; human, plasma, po, 25 mg, single 25 mg SR oral dose, N=12, read-out: Vz/F, Mean): 7360 L
- Tmax ([3]; human, plasma, single 25 mg SR oral dose, N=12 (min 1, max 4), read-out: Tmax, median): 2 h
- dose proportionality of PK ([3]; humans): supralinear PK with regard to dose
- oral bioavailability in humans ([3]; in vivo, po): moderate
- Cl/F, Geometric Mean [3, 5]: 405 L/h
- Cl/F, Mean [3, 5]: 424 L/h
- colitis / disease onset ([4]; 30 mg/kg oral twice daily): inhibited disease onset; also recorded: significantly (p<0.001) delayed colitis onset
- disease-associated weight loss ([4]; 30 mg/kg oral twice daily): modulated disease-associated weight loss
- colon structural pathology [4, 6]: significant (p<0.01) reduction in colon structural pathology
- cumulative clinical disease score (symptoms) [4, 6]: reduces symptoms; also recorded: significantly (p<0.0001) reduced
- incidence of rectal prolapse [4, 6]: significantly (p<0.01) lower
- lymphocytic infiltration and transmural inflammation [4, 6]: significantly (p<0.01) decreased
- gene expression in the colon ([4]; oral, vs vehicle): differential gene expression profiles in the colon
- colon morphology ([4]; systemic (oral) delivery): significant protective effects on colon morphology
